Experimental data taken from patent US10017533B2, “Cytotoxic titanium and vanadium complexes” (YISSUM RESEARCH DEVELOPMENT COMPANY OF THE HEBREW …, priority 2012, dated 2018).

Assays:
HT-29 cancer cells = test: MTT cytotoxicity assay on HT-29 colon cells; assay type: cell-based, human; details: for IC50 / maximal inhibition HT-29: three days incubation
Method: (§1) Cytotoxicity was measured on HT-29 colon and OVCAR ovarian cells obtained from ATCC Inc. using the methylthiazolyldiphenyl-tetrazolium bromide (MTT) assay. Cells (0.6×106) in medium (contains: 1% penicillin/streptomycin antibiotics; 1% L-glutamine; 10% fetal bovine serum (FBS) and 88% medium RPMI-1640, all purchased from Biological Industries Inc.) were seeded into a 96-well plate and allowed to attach for a day. The cells were consequently treated with the reagent tested at 10 different concentrations. Solutions/dispersions of the reagents were prepared either by dissolving 8 mg of the nonformulated reagent in 200 μL of THF or by dispersing 8 mg of formulated reagent in 200 μL of medium, with further diluting to obtain the different concentrations. A total of 20 μL of the resulting system were diluted with 180 μL of medium. Consequently, 10 μL of each final system were added to each well already containing 200 μL of the above solution of cells in the medium to give final concentration of up to 200 mg/L. Control wells were treated with similar amounts of THF or medium. After a standard of 3 days incubation at 37° C. in 5% CO2 atmosphere, MTT (0.1 mg in 20 μL) was added and the cells were incubated for additional 3 hours. The MTT solution was then removed, and the cells were dissolved in 200 μL isopropanol. The absorbance at 550 nm was measured by a Bio-Tek EL-800 microplate reader spectrophotometer. Each measurement was repeated at least 3×3 times, namely, three repeats per plate, all repeated at least 3 times on different days (9 repeats altogether). IC50 values were determined by a non-linear regression of a variable slope (four parameters) model.

OVCAR-3 = test: MTT cytotoxicity assay on OVCAR-3 cells; assay type: cell-based; details: administered without formulations, three days incubation
Method: as §1

OVCAR cancer cells = test: MTT cytotoxicity assay on OVCAR ovarian cells; assay type: cell-based
Method: as §1, with “After a standard of 3 days incubation at 37° C. in 5% CO2 atmosphere, MTT (0.1 mg in 20 μL) was added and the cells were incubated for additional 3 hours. The MTT solution was then removed, and the cells were dissolved in 200 μL isopropanol.” left out, “Each measurement was repeated at least 3×3 times, namely, three repeats per plate, all repeated at least 3 times on different days (9 repeats altogether).” left out

[1] = test system: multi-drug-resistant (MDR) cells HU-2; test: Cytotoxicity toward multi-drug-resistant HU-2 cells; assay type: cell-based; details: nanoformulated complex
[2] = Hydrolysis measurements by 1H NMR / stability in water; assay type: physicochemical; details: 10% D2O added to [D8]THF solution
Method: Comparative hydrolysis measurements by ^1H NMR were carried by monitoring the integration of selected signals with time following addition of 10% D2O to [D8]THF solution of the complexes. The t1/2 value for isopropoxo hydrolysis for compound 4 was ca. 100 hours, markedly higher than the value previously reported for analogous complexes of two labile ligands obtained under similar conditions (ca. 5 hours).
NMR data were recorded using AMX-400 or AMX-500 MHz Bruker spectrometer. X-ray diffraction data were obtained with a Bruker SMART APEX CCD diffractometer, running the SMART software package. After collection, the raw data frames were integrated by the SAINT software package. The structures were solved and refined using the SHELXTL software package. Hydrolysis studies by NMR were performed using a solution of the complex in [D^8]THF and adding 10% D2O. The results were verified by including p-dinitrobenzene as an internal standard.

[3] = Particle size by dynamic light scattering; assay type: physicochemical; details: nanoformulated complex, 0.2 wt % dispersion in water
Method: The dry powder obtained at the end of the freeze-drying process was dispersed at 0.2% in distilled water. The sample was manually shaken for 15 seconds. Particle size distribution by volume was measured at room temperature by dynamic light scattering using a Nano-ZS Zetasizer (Malvern, UK). A 633 nm wavelength laser beam was used to illuminate the sample and the light scattering was detected at 173° angle by the Non-Invasive Back-Scatter (NIBS) technology. The advantages of the backscatter detection are: (a) Ability to measure particle size at high concentration; (b) Elimination of dust and impurity effect. Size measurements of the dispersion were performed in triplicate.

[4] = administered without formulations

| Structure (SMILES) | IC50 (HT-29 cancer cells; [4]) [µM] | maximal inhibition HT-29 (HT-29 cancer cells; [4]) [%] | IC50 (OVCAR-3) [µM] | maximal inhibition OVCAR-3 (OVCAR-3) [%] | IC50 (OVCAR cancer cells; nanoformulated complex, three days incubation) [µM] | cytotoxicity when measured directly on OVCAR-1 (OVCAR cancer cells; non-formulated, OVCAR-1 cells as printed) | IC50 (HT-29 cancer cells; nanoformulated complex) [µM] | cytotoxicity when measured/administered directly on HT-29 (HT-29 cancer cells; non-formulated) | IC50 [1] [µM] | hydrolysis observed by 1H NMR [2] | Mean particle size [3] [nm] |
| --- | --- | --- | --- | --- | --- | --- | --- | --- | --- | --- | --- |
| N.N.[Cl][Pt][Cl] [Cis-platin, reference compound] | 12.2 ± 2.3 | 90 | 8.8 ± 2.1 | 91 | – | – | – | – | – | – | – |
| [O]=[V]12[O]c3ccc(Cl)cc3CNCCN(Cc3cc(Cl)ccc3[O]1)Cc1cc(Cl)ccc1[O]2 [compound 7] | 3.2 | 95 | – | – | – | – | – | – | – | – | – |
| CC(C)(C)Oc1ccc2c(c1)CNCCN1Cc3cc(OC(C)(C)C)ccc3[O][V](=[O])([O]2)[O]c2ccc(OC(C)(C)C)cc2C1 [compound 9] | 2 ± 0.4 | 99 | 1.3 | 84 | – | – | – | – | – | – | – |
| [O]=[V]12[O]c3ccccc3CNCCN(Cc3ccccc3[O]1)Cc1ccccc1[O]2 [compound 5] | 1.9 ± 0.6 | 97 | 0.3 ± 0.1 | 88 | – | – | – | – | – | – | – |
| [O]=[V]1[O]c2ccccc2CNCCNCc2ccccc2[O]1 [compound 63] | 5.8 ± 0.3 | 97 | 4.3 ± 1.4 | 87 | – | – | – | – | – | – | – |
| COc1ccc2c(c1)CNCCN1Cc3cc(OC)ccc3[O][V](=[O])([O]2)[O]c2ccc(OC)cc2C1 [compound 8] | 0.7 ± 0.1 | 94 | 0.6 ± 0.2 | 85 | – | – | – | – | – | – | – |
| Cc1cc(C)c2c(c1)CN1Cc3cc(C)cc(C)c3[O][V](=[O])([O]2)[O]c2c(C)cc(C)cc2C1 [compound 50] | 4.6 ± 0.8 | 96 | 2.8 ± 0.5 | 87 | – | – | – | – | – | – | – |
| Clc1cc(Cl)c2c(c1)CN1CCN3Cc4cc(Cl)cc(Cl)c4[O][Ti]([O]2)([O]c2c(Cl)cc(Cl)cc2C1)[O]c1c(Cl)cc(Cl)cc1C3 [compound 3] | – | – | – | – | 14 ± 4 | inactive | 12 ± 2 | inactive | 0.8 ± 1 | no substantial hydrolysis was observed for over a week | 5.3 ± 0.3 |
| Cc1ccc2c(c1)CNCCN1Cc3cc(C)ccc3[O][V](=[O])([O]2)[O]c2ccc(C)cc2C1 [compound 6] | 2.5 ± 0.7 | 98 | 0.3 ± 0.1 | 90 | – | – | – | – | – | – | – |
